pIC50, pKd: −log10 of the molar value.
What was measured:
B cell [1] = test: (§1) Antiproliferative activity against goat anti-human IgM antibody/BAFF-stimulated human PBMC-derived B cells assessed as decrease in cell viability pretreated for 30 mins followed by goat anti-human IgM antibody/BAFF stimulation for 3 days by CellTiter-Glo reagent assay; format: functional, cell-based
[2] = biological target: RAC-beta serine/threonine-protein kinase (Homo sapiens) (UniProt P31751); test: Inhibition of wild-type human partial length AKT2 expressed in bacterial expression system at 1 uM by Kinomescan method relative to control
[3] = biological target: Ribosomal protein S6 kinase alpha-1 (Homo sapiens) (UniProt Q15418); test: Inhibition of wild-type human partial length N-terminal RSK1 Kinase domain 1 (M1 to E388 residues) expressed in bacterial expression system at 1 uM by Kinomescan method relative to control
Cytochrome P450 2C9 = Cytochrome P450 2C9 (Homo sapiens, UniProt P11712); test: Inhibition of CYP2C9 (unknown origin)
[4] = tested on: Receptor-type tyrosine-protein kinase FLT3 (Homo sapiens), P36888 [UNDEFINED MUTATION]; test: Inhibition of human partial length FLT3 ITD mutant expressed in bacterial expression system at 1 uM by Kinomescan method relative to control
Cytochrome P450 3A4 = Cytochrome P450 3A4 (Homo sapiens, UniProt P08684); test: Inhibition of CYP3A4 (unknown origin)
[5] = biological target: Cyclin-dependent kinase 3 (Homo sapiens) (UniProt Q00526); test: Inhibition of wild-type human full length CDK3 (M1 to H305 residues) expressed in bacterial expression system at 1 uM by Kinomescan method relative to control
[6] = biological target: Ephrin type-A receptor 2 (Homo sapiens) (UniProt P29317); test: Inhibition of wild-type human partial length EPHA2 (T593 to V891 residues) expressed in bacterial expression system at 1 uM by Kinomescan method relative to control
Cytochrome P450 2C19 = Cytochrome P450 2C19 (Homo sapiens, UniProt P33261); test: Inhibition of CYP2C19 (unknown origin)
[7] = biological target: TRAF2 and NCK-interacting protein kinase (Homo sapiens) (UniProt Q9UKE5); test: Inhibition of wild-type human partial length TNIK (D4 to K311 residues) expressed in bacterial expression system at 1 uM by Kinomescan method relative to control
[8] = biological target: Ephrin type-A receptor 8 (Homo sapiens) (UniProt P29322); test: Inhibition of wild-type human partial length EPHA8 (Q608 to C920 residues) expressed in bacterial expression system at 1 uM by Kinomescan method relative to control
B cell [9] = test: as §1, with “antibody/recombinant human IL4-stimulated” for “antibody/BAFF-stimulated”, “antibody/recombinant human IL4” for “antibody/BAFF”; format: functional, cell-based
B cell [10] = test: Antiproliferative activity against goat anti-human IgM antibody-stimulated human PBMC-derived B cells assessed as decrease in cell viability pretreated for 30 mins followed by goat anti-human IgM antibody stimulation for 3 days by CellTiter-Glo reagent assay; format: functional, cell-based
[11] = biological target: Tyrosine-protein kinase ITK/TSK (Homo sapiens, UniProt Q08881); test: Binding affinity to wild-type human partial length ITK (R335 to L620 residues) expressed in bacterial expression system by Kinomescan method
[12] = biological target: Tyrosine-protein kinase TXK (Homo sapiens, UniProt P42681); test: Binding affinity to wild-type human partial length TXK tyrosine kinase (L238 to W527 residues) expressed in bacterial expression system by Kinomescan method
Cytochrome P450 1A2 = Cytochrome P450 1A2 (Homo sapiens, UniProt P05177); test: Inhibition of CYP1A2 (unknown origin)
[13] = biological target: Tyrosine-protein kinase Tec (Homo sapiens, UniProt P42680); test: Binding affinity to wild-type human partial length TEC (L341 to D620 residues) expressed in bacterial expression system by Kinomescan method
[14] = biological target: Mitogen-activated protein kinase kinase kinase 11 (Homo sapiens) (UniProt Q16584); test: Inhibition of wild-type human partial length MLK3 (I77 to W399 residues) expressed in bacterial expression system at 1 uM by Kinomescan method relative to control
[15] = biological target: Serine/threonine-protein kinase ICK (Homo sapiens) (UniProt Q9UPZ9); test: Inhibition of wild-type human partial length ICK (M1 to P314 residues) expressed in mammalian expression system at 1 uM by Kinomescan method relative to control
[16] = biological target: Ribosomal protein S6 kinase alpha-6 (Homo sapiens) (UniProt Q9UK32); test: Inhibition of wild-type human partial length C-terminal RSK4 kinase domain 2 (I401 to Y711 residues) expressed in bacterial expression system at 1 uM by Kinomescan method relative to control
[17] = biological target: Serine/threonine-protein kinase 32C (Homo sapiens) (UniProt Q86UX6); test: Inhibition of wild-type human partial length YANK3 (M68 to G486 residues) expressed in bacterial expression system at 10 uM by Kinomescan method relative to control
[18] = biological target: Serine/threonine-protein kinase TAO1 (Homo sapiens) (UniProt Q7L7X3); test: Inhibition of wild-type human partial length TAOK1 (M1 to A320 residues) expressed in mammalian expression system at 10 uM by Kinomescan method relative to control
[19] = biological target: Protein kinase C theta type (Homo sapiens) (UniProt Q04759); test: Inhibition of wild-type human partial length PRKCQ (L350 to S706 residues) expressed in bacterial expression system at 10 uM by Kinomescan method relative to control
[20] = Solubility of the compound at pH 6.8; format: physicochemical; details: buffer
[21] = tested on: Mast/stem cell growth factor receptor Kit (Homo sapiens), P10721 [L576P]; test: Inhibition of human partial length KIT L576P mutant (Y545 to D952 residues) expressed in bacterial expression system at 10 uM by Kinomescan method relative to control
[22] = biological target: Rho-associated protein kinase 2 (Homo sapiens) (UniProt O75116); test: Inhibition of wild-type human partial length ROCK2 (M1 to T431 residues) expressed in mammalian expression system at 10 uM by Kinomescan method relative to control
[23] = biological target: Serine/threonine-protein kinase PAK 5 (Homo sapiens) (UniProt Q9P286); test: Inhibition of wild-type human partial length PAK7 (Y400 to H719 residues) expressed in bacterial expression system at 10 uM by Kinomescan method relative to control
[24] = biological target: Atypical kinase COQ8A, mitochondrial (Homo sapiens) (UniProt Q8NI60); test: Inhibition of wild-type human […] ADCK3 (M280 to Q647 residues) expressed in bacterial expression system at 10 uM by Kinomescan method relative to control
[25] = biological target: Serine/threonine-protein kinase B-raf (Homo sapiens) (UniProt P15056); test: Inhibition of wild-type human partial length BRAF (S429 to E741 residues) expressed in mammalian expression system at 10 uM by Kinomescan method relative to control
[26] = biological target: Cyclin-dependent kinase 9 (Homo sapiens) (UniProt P50750); test: Inhibition of wild-type human full length CDK9 (M1 to F372 residues) expressed in bacterial expression system at 10 uM by Kinomescan method relative to control
Sequence of Cyclin-dependent kinase 9 (Homo sapiens) (P50750 whole entry, the tested form may be a part): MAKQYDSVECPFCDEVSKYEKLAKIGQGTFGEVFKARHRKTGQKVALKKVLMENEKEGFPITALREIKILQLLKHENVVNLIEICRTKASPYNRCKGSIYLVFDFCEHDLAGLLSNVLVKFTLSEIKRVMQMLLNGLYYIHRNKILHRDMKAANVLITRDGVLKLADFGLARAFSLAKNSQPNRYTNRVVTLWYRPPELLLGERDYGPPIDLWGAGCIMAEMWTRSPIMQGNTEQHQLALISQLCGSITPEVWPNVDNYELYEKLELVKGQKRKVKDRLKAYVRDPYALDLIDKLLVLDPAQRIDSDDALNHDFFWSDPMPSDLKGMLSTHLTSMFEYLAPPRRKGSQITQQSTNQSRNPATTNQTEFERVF

Sequence of Tyrosine-protein kinase TXK (P42681 whole entry, the tested form may be a part): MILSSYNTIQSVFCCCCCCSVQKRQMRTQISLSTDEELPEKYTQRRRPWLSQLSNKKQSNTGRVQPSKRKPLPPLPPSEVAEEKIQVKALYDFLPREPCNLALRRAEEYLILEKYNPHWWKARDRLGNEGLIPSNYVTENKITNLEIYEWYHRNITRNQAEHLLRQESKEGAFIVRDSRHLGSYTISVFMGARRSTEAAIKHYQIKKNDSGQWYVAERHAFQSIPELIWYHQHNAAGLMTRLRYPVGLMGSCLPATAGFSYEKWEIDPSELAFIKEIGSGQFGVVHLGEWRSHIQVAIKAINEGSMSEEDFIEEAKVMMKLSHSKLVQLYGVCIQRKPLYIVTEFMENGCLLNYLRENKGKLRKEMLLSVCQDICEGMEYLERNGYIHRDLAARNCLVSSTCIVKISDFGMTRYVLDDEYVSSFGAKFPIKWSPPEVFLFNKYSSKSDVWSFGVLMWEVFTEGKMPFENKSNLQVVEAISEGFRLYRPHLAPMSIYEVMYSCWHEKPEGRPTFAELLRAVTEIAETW
Sequence of Cytochrome P450 1A2 (P05177 whole entry, the tested form may be a part): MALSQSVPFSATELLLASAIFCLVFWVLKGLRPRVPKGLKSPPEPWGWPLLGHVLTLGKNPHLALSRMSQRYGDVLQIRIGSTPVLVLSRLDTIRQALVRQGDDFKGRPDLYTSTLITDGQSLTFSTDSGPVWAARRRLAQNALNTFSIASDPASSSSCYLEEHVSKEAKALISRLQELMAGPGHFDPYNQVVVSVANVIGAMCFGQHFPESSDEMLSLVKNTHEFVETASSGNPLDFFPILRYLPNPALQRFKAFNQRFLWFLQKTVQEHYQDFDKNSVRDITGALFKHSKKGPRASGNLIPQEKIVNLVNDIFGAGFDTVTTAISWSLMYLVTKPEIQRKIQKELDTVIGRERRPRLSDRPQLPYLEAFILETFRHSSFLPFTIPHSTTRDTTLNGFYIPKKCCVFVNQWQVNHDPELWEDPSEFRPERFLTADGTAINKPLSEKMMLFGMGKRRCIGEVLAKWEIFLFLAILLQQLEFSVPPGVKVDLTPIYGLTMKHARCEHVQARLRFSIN
Sequence of Cytochrome P450 3A4 (P08684 whole entry, the tested form may be a part): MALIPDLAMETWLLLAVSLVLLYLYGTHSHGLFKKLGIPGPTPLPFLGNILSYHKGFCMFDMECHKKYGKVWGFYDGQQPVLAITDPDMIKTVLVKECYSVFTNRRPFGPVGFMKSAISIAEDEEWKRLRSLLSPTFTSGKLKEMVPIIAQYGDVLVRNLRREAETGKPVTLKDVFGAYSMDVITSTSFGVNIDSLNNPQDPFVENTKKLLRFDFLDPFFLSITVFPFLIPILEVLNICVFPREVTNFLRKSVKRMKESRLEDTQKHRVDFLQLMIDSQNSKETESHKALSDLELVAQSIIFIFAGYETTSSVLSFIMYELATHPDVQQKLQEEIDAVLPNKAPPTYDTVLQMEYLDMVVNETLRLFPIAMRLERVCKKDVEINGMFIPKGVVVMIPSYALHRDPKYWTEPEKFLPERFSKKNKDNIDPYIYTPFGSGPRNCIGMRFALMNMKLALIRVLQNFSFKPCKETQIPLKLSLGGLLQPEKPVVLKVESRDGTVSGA
Sequence of Cytochrome P450 2C9 (P11712 whole entry): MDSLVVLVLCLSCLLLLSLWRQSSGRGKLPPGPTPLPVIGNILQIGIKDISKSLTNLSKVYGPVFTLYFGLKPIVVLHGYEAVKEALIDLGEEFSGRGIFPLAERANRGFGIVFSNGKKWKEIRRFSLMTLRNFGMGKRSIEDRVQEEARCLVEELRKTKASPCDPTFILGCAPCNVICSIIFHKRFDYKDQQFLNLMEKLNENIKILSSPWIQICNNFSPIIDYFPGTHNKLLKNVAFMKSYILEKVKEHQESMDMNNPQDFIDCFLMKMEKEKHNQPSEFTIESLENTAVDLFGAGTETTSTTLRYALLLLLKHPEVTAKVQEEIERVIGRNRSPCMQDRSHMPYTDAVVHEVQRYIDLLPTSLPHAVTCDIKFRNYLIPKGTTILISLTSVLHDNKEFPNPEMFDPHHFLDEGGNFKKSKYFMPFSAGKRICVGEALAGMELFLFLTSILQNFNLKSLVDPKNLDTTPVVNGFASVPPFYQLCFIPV
Sequence of Tyrosine-protein kinase Tec (P42680 whole entry, the tested form may be a part): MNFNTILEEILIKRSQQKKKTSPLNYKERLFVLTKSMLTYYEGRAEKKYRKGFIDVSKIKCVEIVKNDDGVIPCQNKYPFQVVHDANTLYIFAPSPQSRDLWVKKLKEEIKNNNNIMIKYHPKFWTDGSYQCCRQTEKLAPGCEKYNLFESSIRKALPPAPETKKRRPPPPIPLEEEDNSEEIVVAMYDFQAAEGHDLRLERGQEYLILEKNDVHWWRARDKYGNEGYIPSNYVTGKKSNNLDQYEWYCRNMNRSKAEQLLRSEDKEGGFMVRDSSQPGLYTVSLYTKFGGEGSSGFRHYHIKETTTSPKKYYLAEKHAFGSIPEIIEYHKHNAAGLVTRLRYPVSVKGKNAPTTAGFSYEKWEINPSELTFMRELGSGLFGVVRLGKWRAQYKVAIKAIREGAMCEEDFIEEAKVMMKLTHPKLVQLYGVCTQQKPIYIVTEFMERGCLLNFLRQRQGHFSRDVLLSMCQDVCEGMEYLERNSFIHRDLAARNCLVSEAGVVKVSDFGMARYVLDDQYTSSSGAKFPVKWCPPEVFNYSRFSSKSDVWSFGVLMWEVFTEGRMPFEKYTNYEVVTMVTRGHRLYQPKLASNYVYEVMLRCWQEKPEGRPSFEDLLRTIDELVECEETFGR
Sequence of Cytochrome P450 2C19 (P33261 whole entry, the tested form may be a part): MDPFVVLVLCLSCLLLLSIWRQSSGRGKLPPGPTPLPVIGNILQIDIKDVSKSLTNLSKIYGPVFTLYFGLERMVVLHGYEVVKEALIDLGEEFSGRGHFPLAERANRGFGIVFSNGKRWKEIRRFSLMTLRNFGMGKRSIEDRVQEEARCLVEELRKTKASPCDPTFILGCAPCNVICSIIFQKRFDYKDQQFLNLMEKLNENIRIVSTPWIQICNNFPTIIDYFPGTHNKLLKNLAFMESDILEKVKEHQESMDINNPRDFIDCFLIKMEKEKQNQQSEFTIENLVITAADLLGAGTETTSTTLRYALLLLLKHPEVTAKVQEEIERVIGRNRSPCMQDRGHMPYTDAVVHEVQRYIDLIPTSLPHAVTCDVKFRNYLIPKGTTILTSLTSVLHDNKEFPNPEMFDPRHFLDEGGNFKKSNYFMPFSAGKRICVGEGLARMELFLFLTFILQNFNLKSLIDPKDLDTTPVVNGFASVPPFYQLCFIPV
Sequence of Tyrosine-protein kinase ITK/TSK (Q08881 whole entry, the tested form may be a part): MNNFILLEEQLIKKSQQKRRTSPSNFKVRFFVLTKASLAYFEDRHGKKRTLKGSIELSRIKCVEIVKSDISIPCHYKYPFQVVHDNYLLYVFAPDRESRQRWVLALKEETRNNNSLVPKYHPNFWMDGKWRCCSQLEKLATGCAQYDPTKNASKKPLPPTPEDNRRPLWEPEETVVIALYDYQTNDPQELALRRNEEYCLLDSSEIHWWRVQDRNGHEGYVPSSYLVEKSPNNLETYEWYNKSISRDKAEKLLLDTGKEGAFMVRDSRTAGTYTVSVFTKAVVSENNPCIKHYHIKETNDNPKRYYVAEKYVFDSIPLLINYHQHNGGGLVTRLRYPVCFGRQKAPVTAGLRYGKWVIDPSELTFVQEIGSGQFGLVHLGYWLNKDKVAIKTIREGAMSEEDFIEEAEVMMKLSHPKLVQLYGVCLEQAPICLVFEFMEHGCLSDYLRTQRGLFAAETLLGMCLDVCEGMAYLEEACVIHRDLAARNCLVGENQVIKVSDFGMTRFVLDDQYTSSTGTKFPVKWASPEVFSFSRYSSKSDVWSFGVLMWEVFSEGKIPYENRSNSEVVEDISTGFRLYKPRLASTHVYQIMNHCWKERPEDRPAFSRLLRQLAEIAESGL
Sequence of Atypical kinase COQ8A, mitochondrial (Homo sapiens) (Q8NI60 163-647 limits assumed): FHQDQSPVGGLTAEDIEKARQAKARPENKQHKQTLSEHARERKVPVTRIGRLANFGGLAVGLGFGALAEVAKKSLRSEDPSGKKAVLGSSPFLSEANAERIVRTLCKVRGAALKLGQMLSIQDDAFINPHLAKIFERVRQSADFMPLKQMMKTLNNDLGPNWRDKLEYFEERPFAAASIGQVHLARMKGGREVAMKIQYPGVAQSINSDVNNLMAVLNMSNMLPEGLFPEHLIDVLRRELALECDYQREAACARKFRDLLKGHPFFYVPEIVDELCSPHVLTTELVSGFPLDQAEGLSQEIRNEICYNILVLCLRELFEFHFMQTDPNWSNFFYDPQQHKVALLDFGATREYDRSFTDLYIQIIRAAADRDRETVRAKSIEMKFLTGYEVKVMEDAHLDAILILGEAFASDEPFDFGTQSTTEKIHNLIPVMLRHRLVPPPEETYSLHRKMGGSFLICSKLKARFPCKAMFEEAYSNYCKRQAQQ
Sequence of Cyclin-dependent kinase 3 (Homo sapiens) (Q00526 whole entry, looked up, the tested form may be a part): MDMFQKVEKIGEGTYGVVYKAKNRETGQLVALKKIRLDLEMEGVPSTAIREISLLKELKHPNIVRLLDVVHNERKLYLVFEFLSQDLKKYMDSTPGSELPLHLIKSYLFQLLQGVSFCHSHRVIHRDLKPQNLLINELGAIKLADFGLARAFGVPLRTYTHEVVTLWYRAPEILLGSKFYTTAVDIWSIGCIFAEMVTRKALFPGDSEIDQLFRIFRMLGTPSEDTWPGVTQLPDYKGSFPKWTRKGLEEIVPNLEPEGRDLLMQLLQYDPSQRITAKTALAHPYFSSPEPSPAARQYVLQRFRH

Structure (SMILES)	pIC50 (B cell [1])	pIC50 (Cytochrome P450 2C9)	pIC50 (Cytochrome P450 3A4)	pIC50 (Cytochrome P450 2C19)	pIC50 (B cell [9])	pIC50 (B cell [10])	pKd [11]	pKd [12]	pIC50 (Cytochrome P450 1A2)	pKd [13]	other results
O=C(Nc1cccc([C@@H]2CN(c3ncnc4[nH]ccc34)CCN2CCO)c1)Nc1c(F)cccc1N1CCCC1	7.04	< 5.30	< 5.30	< 5.30	6.62	6.60	8.30	6.28	< 5.30	6.38	inhibition [2]: 100%; inhibition [3]: 90%; inhibition [4]: 8.7%; inhibition [5]: 88%; inhibition [6]: 98%; inhibition [7]: 81%; inhibition [8]: 100%; inhibition [14]: 100%; inhibition [15]: 100%; inhibition [16]: 88%
O=C(Nc1cccc([C@H]2CCCN(c3ncnc4[nH]ccc34)C2)c1)Nc1ccccc1N1CCCC1	6.04	5.74	6.00	5.66	5.72	6.00	6.40	< 6.00	5.66	< 6.00	inhibition [17]: 100%; inhibition [18]: 62%; inhibition [19]: 100%; solubility [20]: < 1 µg/mL; inhibition [21]: 0.2%; inhibition [22]: 49%; inhibition [23]: 69%; inhibition [24]: 100%; inhibition [25]: 35%; inhibition [26]: 100%
